What all share (assay type): biochemical
The nature of data set [1]: Hydrogen peroxide generation by enzymes on substrates. The conditions noted are these: for μg of H2O2 produced/ml: one unit enzyme, pH 6.3, 37° C., 12 h. As for the experimental part:
Seven enzymes, including glucose oxidase, glycerol-3-phosphate oxidase, xanthine oxidase, cholesterol oxidase, galactose oxidase, alcohol oxidase and pyruvate oxidase, were tested for hydrogen peroxide generation on five substrates, including tampon material (e.g., cellulosic materials, including, but not limited to, cotton and rayon fibers), polydextran, carboxymethylcellulose, chitosan, and poly (vinyl alcohol).
One unit of each enzyme was combined with 0.05 ml of a saturated solution (in distilled, deionized water) of each substrate in a test tube and diluted to 0.5 ml with buffer (0.5 M Tris buffer, pH adjusted to 6.3). In the case of insoluble substrates, a piece (approximately 0.25 g) of the substrate was placed in the test tube. The tubes were placed in an oscillating incubator at 37° C. After 12 h, the tubes were removed and the solution was assayed for H2O2 level by an established method (Graf, E. and Penniston, J. T., “Method for Determination of Hydrogen Peroxide, With Its Application Illustrated by Glucose Assay,” Clinical Chemistry, 26, 658-660 (1980)). The results are depicted in Table 2 in μg H2O2 per ml. (For production of hydrogen peroxide over time, see FIG. 1.)

The nature of data set [2]: Self-limiting features of peroxide generation, alcohol oxidase-carboxymethylcellulose. The conditions noted are these: carboxymethylcellulose substrate, 37° C. As for the experimental part: FIG. 4 is a graphical representation of the effect of pH on hydrogen peroxide production. Depicted is hydrogen peroxide production resulting from alcohol oxidase activity with carboxymethylcellulose as a function of pH (with no initial peroxide added, after agitation for 8 hours at 37° C. in normal atmosphere).
FIG. 5 is a graphical representation of the effect of initial hydrogen peroxide (H2O2) on H2O2 production. Depicted is hydrogen peroxide production resulting from alcohol oxidase activity with carboxymethylcellulose as a function of initial hydrogen peroxide added (at pH 6.3, after agitation for 8 hours at 37° C. in normal atmosphere).
One of the enzyme-substrate combinations, alcohol oxidase-carboxymethylcellulose, was further studied. One unit of enzyme was combined with 0.05 ml of 2.5% carboxymethyl cellulose in a test tube and diluted to 0.5 ml with buffer of appropriate pH. The tubes were placed in an oscillating incubator at 37° C. After 8 hours, the tubes were removed and the solution was assayed for H2O2 level.

The nature of data set [3]: H2O2 production by alcohol oxidase on modified pva/polycap polymer versus unmodified poly (vinyl alcohol). The note with it: direct comparison (data not shown).
Setting [4] is: substrate Tampon Material (cotton).

In the case of xanthine oxidase, the “μg of H2O2 produced/ml” value in data set [1] (substrate CM Cellulose) is listed as 6.08 μg H2O2 per ml; in data set [1] (substrate Chitosan) it was 10.00 μg H2O2 per ml; in data set [1] (substrate Poly(vinyl alcohol)) it was 6.00 μg H2O2 per ml; in data set [1] (substrate Polydextran) it was 5.96 μg H2O2 per ml; in data set [1] (setting [4]), 10.46 μg H2O2 per ml.
In the same order, the values of cholesterol oxidase are 4.01 μg H2O2 per ml, 14.09 μg H2O2 per ml, 5.13 μg H2O2 per ml, 3.89 μg H2O2 per ml and 4.92 μg H2O2 per ml.
Regarding galactose oxidase, the “μg of H2O2 produced/ml” value stood at 4.43 μg H2O2 per ml in data set [1] (substrate CM Cellulose); 8.06 μg H2O2 per ml in data set [1] (substrate Chitosan); 4.34 μg H2O2 per ml in data set [1] (substrate Poly(vinyl alcohol)); 3.89 μg H2O2 per ml in data set [1] (substrate Polydextran); 6.45 μg H2O2 per ml in data set [1] (setting [4]).
In the same order, the values of glycerol-3-phosphate oxidase are 3.97 μg H2O2 per ml, 9.01 μg H2O2 per ml, 3.85 μg H2O2 per ml, 4.01 μg H2O2 per ml and 4.84 μg H2O2 per ml.
In the same order, the values of glucose oxidase are 3.31 μg H2O2 per ml, 10.66 μg H2O2 per ml, 4.47 μg H2O2 per ml, 54.69 μg H2O2 per ml and 4.43 μg H2O2 per ml.
On to alcohol oxidase, for which the “enzyme activity as a function of pH” value in data set [2] (8 hours, FIG. 4) is on record as “decreased with decreasing pH”. Besides, the “hydrogen peroxide production at pH 6.3” value in data set [2] (pH 6.3, 8 hours) is listed as “high levels of hydrogen peroxide”. Further, the “effect of initial hydrogen peroxide on enzyme activity” value in data set [2] (pH 6.3, 8 hours, FIG. 5) is reported as “deactivated in the presence of high concentrations of hydrogen peroxide”. Also, the “more H2O2 produced on modified pva/polycap polymer than on unmodified poly (vinyl alcohol)” value in data set [3] stood at 22%. The “level of H2O2 production compared with the other enzymes” value in data set [1] (across the five substrates of Table 2) is on record as “highest level of H2O2 production on most of the substrates”. In addition, the “μg of H2O2 produced/ml” value in data set [1] (substrate CM Cellulose) turned out to be 103.96 μg H2O2 per ml; in data set [1] (substrate Chitosan), 9.38 μg H2O2 per ml; in data set [1] (substrate Poly(vinyl alcohol)) it was 53.20 μg H2O2 per ml; in data set [1] (substrate Polydextran), 92.89 μg H2O2 per ml; in data set [1] (setting [4]) it was 97.84 μg H2O2 per ml.
In the case of pyruvate oxidase, the “μg of H2O2 produced/ml” value in data set [1] (substrate CM Cellulose) is recorded as 9.84 μg H2O2 per ml; in data set [1] (substrate Chitosan) it was 11.94 μg H2O2 per ml; in data set [1] (substrate Poly(vinyl alcohol)) it was 3.85 μg H2O2 per ml; in data set [1] (substrate Polydextran) it was 9.75 μg H2O2 per ml; in data set [1] (setting [4]) it was 6.66 μg H2O2 per ml.
